Key:
Format in all cases: cell-based
[1] = system: HCV replicon genotype 1a-H77; experiment: Stable subgenomic replicon luciferase assay, genotype 1a-H77; conditions: Hepatitis C virus, luciferase reporter, 5% FBS, read-out: Mean EC50 ± Std. Dev.
[2] = system: HCV replicon genotype 1b-Con1; experiment: Stable subgenomic replicon luciferase assay, genotype 1b-Con1; conditions: Hepatitis C virus, luciferase reporter, 5% FBS, read-out: Mean EC50 ± Std. Dev.
[3] = system: HCV replicon with NS5A from genotype 2a; experiment: Stable chimeric 1b-Con1 replicon with NS5A from genotype 2a; conditions: Hepatitis C virus, read-out: Mean EC50 ± Std. Dev.
[4] = system: HCV replicon with NS5A from genotype 2b; experiment: Stable chimeric 1b-Con1 replicon with NS5A from genotype 2b; conditions: Hepatitis C virus, read-out: Mean EC50 ± Std. Dev.
[5] = system: HCV replicon with NS5A from genotype 3a; experiment: Stable chimeric 1b-Con1 replicon with NS5A from genotype 3a; conditions: Hepatitis C virus, read-out: Mean EC50 ± Std. Dev.
[6] = system: HCV replicon with NS5A from genotype 4a; experiment: Stable chimeric 1b-Con1 replicon with NS5A from genotype 4a; conditions: Hepatitis C virus, read-out: Mean EC50 ± Std. Dev.
[7] = system: HCV replicon with NS5A from genotype 5a; experiment: Stable chimeric 1b-Con1 replicon with NS5A from genotype 5a; conditions: Hepatitis C virus, read-out: Mean EC50 ± Std. Dev.
[8] = system: HCV replicon with NS5A from genotype 6a; experiment: Stable chimeric 1b-Con1 replicon with NS5A from genotype 6a; conditions: Hepatitis C virus, read-out: Mean EC50 ± Std. Dev.
[9] = system: HCV replicon with NS5A genotype 2a wild type; experiment: Transient chimeric replicon assay, genotype 2a WT; conditions: Hepatitis C virus, read-out: Average EC50
Excerpt: (§1) Transiently replicating chimeric replicons containing NS5A from genotype 2-6 wild types or replicons containing variants within NS5A were constructed in the 1b-Con1 background. These replicons also contained a firefly luciferase reporter gene. Variants were introduced by site-directed mutagenesis using the Change-IT Multiple Mutation Site Directed Mutagenesis Kit (USB). After the mutagenesis was confirmed by sequence analysis, the plasmids were linearized with Scat restriction enzyme. The TranscriptAid T7 High Yield Transcription Kit (Fermentas) was used to transcribe the HCV subgenomic RNA from the plasmids. The RNA was transfected via electroporation into a Huh-7 derived cell line as described (see Middleton et al. and Tripathi et al., supra) except that 3×10^6 cells were electroporated with 15 μg of template RNA and the 96 well plate was seeded with 7.5×10^3 cells per well. Four hours post-transfection, the wells from one plate were harvested for luciferase measurement. […] Luciferin solution (50 μl, Promega) was added to each well, and luciferase activity was measured with a Victor II luminometer (Perkin-Elmer). The percent inhibition of HCV RNA replication was calculated for each compound concentration and the EC50 value was calculated using nonlinear regression curve fitting to the 4-parameter logistic equation and GraphPad Prism 4 software.

[10] = system: HCV replicon with NS5A genotype 2a T24A variant; experiment: Transient chimeric replicon assay, genotype 2a T24A; conditions: Hepatitis C virus, read-out: Average EC50
Excerpt: as §1

[11] = system: HCV replicon with NS5A genotype 2b wild type; experiment: Transient chimeric replicon assay, genotype 2b WT; conditions: Hepatitis C virus, read-out: Average EC50
Excerpt: as §1

[12] = system: HCV replicon with NS5A genotype 2b L28F variant; experiment: Transient chimeric replicon assay, genotype 2b L28F; conditions: Hepatitis C virus, read-out: Average EC50
Excerpt: as §1

[13] = system: HCV replicon with NS5A genotype 3a wild type; experiment: Transient chimeric replicon assay, genotype 3a WT; conditions: Hepatitis C virus, read-out: Average EC50
Excerpt: as §1

[14] = system: HCV replicon with NS5A genotype 3a Y93H variant; experiment: Transient chimeric replicon assay, genotype 3a Y93H; conditions: Hepatitis C virus, read-out: Average EC50
Excerpt: as §1

[15] = system: HCV replicon with NS5A genotype 4a L30H variant; experiment: Transient chimeric replicon assay, genotype 4a L30H; conditions: Hepatitis C virus, read-out: Average EC50
Excerpt: as §1

[16] = system: HCV replicon with NS5A genotype 5a wild type; experiment: Transient chimeric replicon assay, genotype 5a WT; conditions: Hepatitis C virus, read-out: Average EC50
Excerpt: as §1

[17] = system: HCV replicon with NS5A genotype 5a L28I variant; experiment: Transient chimeric replicon assay, genotype 5a L28I; conditions: Hepatitis C virus, read-out: Average EC50
Excerpt: as §1

[18] = system: HCV replicon with NS5A genotype 5a L31F variant; experiment: Transient chimeric replicon assay, genotype 5a L31F; conditions: Hepatitis C virus, read-out: Average EC50
Excerpt: as §1

[19] = system: HCV replicon with NS5A genotype 6a wild type; experiment: Transient chimeric replicon assay, genotype 6a WT; conditions: Hepatitis C virus, read-out: Average EC50
Excerpt: as §1

[20] = system: HCV replicon with NS5A genotype 6a T58N variant; experiment: Transient chimeric replicon assay, genotype 6a T58N; conditions: Hepatitis C virus, read-out: Average EC50
Excerpt: as §1

[21] = system: HCV replicon with NS5A genotype 6a L31V variant; experiment: Transient chimeric replicon assay, genotype 6a L31V; conditions: Hepatitis C virus, read-out: Average EC50
Excerpt: as §1

[22] = system: HCV replicon with NS5A genotype 6a T58A variant; experiment: Transient chimeric replicon assay, genotype 6a T58A; conditions: Hepatitis C virus, read-out: Average EC50
Excerpt: as §1

[23] = system: stable subgenomic replicons with NS5A from HCV genotype 1a, 1b, 2a, 2b, 3a, 4a, 5a, and 6a; experiment: Stable subgenomic replicons, genotype panel (summary statement); conditions: Hepatitis C virus, read-out: EC50 values against stable subgenomic replicons with NS5A from a broad range of HCV genotypes
[24] = system: HCV variants that are resistant to other NS5A inhibitors; experiment: Transient subgenomic replicon assays, resistant variant panel (summary statement); conditions: Hepatitis C virus, read-out: EC50 values against HCV variants resistant to other NS5A inhibitors, transient subgenomic replicon assays
Excerpt: as §1

[25] = system: HCV replicon with NS5A genotype 2b L31V variant; experiment: Transient chimeric replicon assay, genotype 2b L31V; conditions: Hepatitis C virus, read-out: Average EC50
Excerpt: as §1

[26] = system: HCV replicon with NS5A genotype 3a M28T variant; experiment: Transient chimeric replicon assay, genotype 3a M28T; conditions: Hepatitis C virus, read-out: Average EC50
Excerpt: as §1

[27] = system: HCV replicon with NS5A genotype 4a L28V variant; experiment: Transient chimeric replicon assay, genotype 4a L28V; conditions: Hepatitis C virus, read-out: Average EC50
Excerpt: as §1

[28] = system: HCV replicon with NS5A genotype 5a L31V variant; experiment: Transient chimeric replicon assay, genotype 5a L31V; conditions: Hepatitis C virus, read-out: Average EC50
Excerpt: as §1

SMILES	EC50 [9]	EC50 [10]	EC50 [11]	EC50 [12]	EC50 [13]	EC50 [14]	EC50 [17]	EC50 [18]	EC50 [19]	EC50 [20]	EC50 [21]	EC50 [22]	also measured
COC(=O)N[C@H](C(=O)N1CCC[C@H]1c1nc2cc([C@H]3CC[C@H](c4cc5nc([C@@H]6CCCN6C(=O)[C@@H](NC(=O)OC)[C@@H](C)OC)[nH]c5cc4F)N3c3cc(F)c(N4CCC(c5ccc(F)cc5)CC4)c(F)c3)c(F)cc2[nH]1)[C@@H](C)OC [Compound 1, methyl {(2S,3R)-1-[(2S)-2-{5-[(2R,5R)-1-{3,5-difluoro-4-[4-(4-fluorophenyl)piperidin-1-yl]phenyl}-5-(6-fluoro-2-{(2S)-1-[N-(methoxycarbonyl)-O-methyl-L-threonyl]pyrrolidin-2-yl}-1H-benzimidazol-5-yl)pyrrolidin-2-yl]-6-fluoro-1H-benzimidazol-2-yl}pyrrolidin-1-yl]-3-methoxy-1-oxobutan-2-yl}carbamate]	0.0013 nM	0.0013 nM	0.001 nM	0.0011 nM	0.0018 nM	0.0043 nM	0.001 nM	0.0019 nM	0.0014 nM	0.0025 nM	0.001 nM	0.0015 nM	EC50 [1]: 0.0018 ± 0.0009 nM; EC50 [2]: 0.0043 ± 0.0017 nM; EC50 [3]: 0.0023 ± 0.0007 nM; EC50 [4]: 0.0019 ± 0.0006 nM; EC50 [5]: 0.0021 ± 0.0007 nM; EC50 [6]: 0.0019 ± 0.0006 nM; EC50 [7]: 0.0014 ± 0.0004 nM; EC50 [8]: 0.0028 ± 0.0007 nM; EC50 [15]: 0.001 nM; EC50 [16]: 0.0011 nM; EC50 [23]: < 10000 nM; EC50 [24]: < 5000 nM
COC(=O)N[C@H](C(=O)N1CCC[C@H]1C(=O)Nc1ccc([C@@H]2CC[C@@H](c3ccc(NC(=O)[C@@H]4CCCN4C(=O)[C@@H](NC(=O)OC)C(C)C)cc3)N2c2ccc(C(C)(C)C)cc2)cc1)C(C)C [reference compound, reference compound]	0.0034 nM	0.092 nM	0.0011 nM	0.039 nM	0.0072 nM	> 100 nM	0.072 nM	0.263 nM	0.08 nM	8.47 nM	5.04 nM	1.15 nM	EC50 [25]: 0.427 nM; EC50 [26]: 3.03 nM; EC50 [27]: 0.0053 nM; EC50 [28]: 0.221 nM
